Source: PubChem BioAssay (NCI)
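1) Cells in 96-well plates. 2) Compound, 48 h, 5 concentrations. 3) Linear interpolation between surrounding doses. 4) Unreached endpoint = highest concentration. GI50 marks 50% less growth. At the TGI there is no net growth.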

Key:
Test in all cases: NCI-60 cell line screen, 48 h
ACHN renal = tested on: ACHN renal
EKVX NSCLC = tested on: EKVX NSCLC
HCC-2998 colon = tested on: HCC-2998 colon
HOP-92 NSCLC = tested on: HOP-92 NSCLC
NCI-H460 lung = tested on: NCI-H460 lung
NCI-H522 lung = tested on: NCI-H522 lung
RPMI-8226 leukemia = tested on: RPMI-8226 leukemia
SF-295 CNS = tested on: SF-295 CNS
UACC-62 melanoma = tested on: UACC-62 melanoma
HS 578T breast = tested on: HS 578T breast

Row | Structure (SMILES) | TGI (ACHN renal) [µM] | TGI (EKVX NSCLC) [µM] | TGI (HCC-2998 colon) [µM] | TGI (HOP-92 NSCLC) [µM] | TGI (NCI-H460 lung) [µM] | TGI (NCI-H522 lung) [µM] | TGI (RPMI-8226 leukemia) [µM] | TGI (SF-295 CNS) [µM] | TGI (UACC-62 melanoma) [µM] | TGI (HS 578T breast) [µM] | GI50 (ACHN renal) [µM] | GI50 (EKVX NSCLC) [µM] | GI50 (HCC-2998 colon) [µM] | GI50 (HS 578T breast) [µM] | GI50 (NCI-H460 lung) [µM] | GI50 (NCI-H522 lung) [µM] | GI50 (RPMI-8226 leukemia) [µM] | GI50 (SF-295 CNS) [µM] | GI50 (UACC-62 melanoma) [µM] | GI50 (HOP-92 NSCLC) [µM]
1 | COc1cc2cc(OC)c3cc4c(cc3c2c(OC)c1OC)OCO4 | > 100 | > 92 | 25.8 | > 93.3 | 52 | 56.6 | 52.9 | > 76 | > 64.4 |  |  |  |  |  |  |  |  |  |  | 
2 | Cc1c(C(=O)CC(=O)C(=O)Nc2ccccc2C(F)(F)F)[n+](=O)c2ccccc2n1[O-] | > 100 | 49.4 | 57.7 | 60.1 | 69.4 | 35.8 | 24.2 | > 100 | 34.4 |  |  |  |  |  |  |  |  |  |  | 
3 | CNS(=O)(=O)NNS(=O)(=O)c1ccccc1 | > 100 | > 100 | > 100 | > 100 | > 100 | > 100 | > 100 | > 100 | > 100 |  |  |  |  |  |  |  |  |  |  | 
4 | NC1=NCCC1(c1ccccc1)c1ccccn1 (configuration not stated) | > 100 | > 100 | > 100 | > 100 | > 100 | > 100 | > 100 | > 100 | > 100 |  |  |  |  |  |  |  |  |  |  | 
5 | NS(=O)(=O)c1ccc2c(c1)OCCOCCOCCOCCO2 | > 100 | > 100 | > 100 |  | > 100 | > 100 | > 100 | > 100 | > 100 | > 100 |  |  |  |  |  |  |  |  |  | 
6 | Cc1cc(-c2nc(C(=O)Nc3cc4oc(N5CCOCC5)nc4nc3N3CC[C@@H](O)C3)co2)ccn1 | 93.7 | > 100 | > 100 |  | > 100 | > 100 | > 100 | > 100 | > 100 | > 100 | 17.9 | > 100 | 55 | 22.2 | 44 | 20 | 25.8 | 87.5 | 57 | 
7 | O=C(CCc1nc(=S)[nH][nH]1)Nc1cc(Cl)c(Cl)cc1Cl | > 100 |  | > 100 | > 100 | > 100 | > 100 | > 100 | > 100 | > 100 |  |  |  |  |  |  |  |  |  |  | 
8 | NC(=O)NO.O.O.O.O.O.O.O.O.O.O.O.[Ge].[Ge].[Ge].[Ge].[Ge].[O]=[Ge].[O]=[Ge].[O]=[Ge].[O]=[Ge].[O]=[Ge][OH] | > 100 | > 100 | > 100 | > 100 | > 100 | > 100 | > 100 | > 100 | 53.5 |  |  |  |  |  |  |  |  |  |  | 
9 | CCCCCCCCCCCC(=O)OCCOCCOCCOCCOCCOCc1ccccc1 | > 100 | > 100 | > 100 | > 100 | > 100 | > 100 | > 100 | > 100 | > 100 |  |  |  |  |  |  |  |  |  |  | 
10 | CCOC(=O)C(C)(C)Oc1ccc2c(-c3ccccc3)cc(=O)oc2c1 | > 100 | > 100 | > 100 |  | > 100 |  | 49.9 | > 100 | 38.6 |  |  |  |  |  |  |  |  |  |  | 
11 | CN1CCN(C2=NCCO2)CC1 | > 100 | > 100 | > 100 |  | > 100 | > 100 | > 100 | > 100 | > 100 |  |  |  |  |  |  |  |  |  |  | 
12 | FC(F)(F)c1cccc(Nc2nc(-c3ccccc3)nc3ncccc23)c1 | 11.4 |  | 30.2 | 18 | 12.6 |  | 9.16 | 8.34 | 26.2 | 18.1 | 3.3 |  | 4.91 | 3.49 | 3.45 |  | 3.09 | 2.61 | 5.84 | 4.65
13 | CN(C)N=Nc1ccc(C(N)=O)cc1 | > 100 | > 100 | > 100 | > 100 | > 100 | > 100 | > 100 | > 100 | > 100 |  |  |  |  |  |  |  |  |  |  | 
14 | NS(=O)(=O)OC[C@@H]1C[C@@H](n2ccc3c(NC4CCc5ccccc54)ncnc32)C[C@@H]1O (some centres not stated) | 1.8 | > 100 | 18.2 |  | 23.9 | 27.3 | 27.6 | 4.52 | 20.6 | 61.3 | 0.332 | 21.4 | 2.97 | 16.8 | 0.341 | 3.31 | 5.41 | 0.337 | 0.0856 | 
15 | C[N+](C)(C)CC(=O)N/N=C(/CC(=O)CC(C1=C(O)c2ccccc2OC1)c1ccccc1)C(=O)Nc1cccc(Cl)c1 (configuration not stated) | > 100 | > 100 | > 100 | > 100 |  | > 100 | > 100 | > 100 | > 100 |  |  |  |  |  |  |  |  |  |  | 
16 | OCc1cc2ccccc2c2c3c(ccc12)OCO3 | 141 |  | 232 | 58.2 | 752 |  | 94.4 | 154 | 74.2 | 144 | 32.1 |  | 37.8 | 29.8 | 28.5 |  | 26.2 | 33.8 | 21.5 | 14.7
17 | Clc1ccccc1C(SCc1ccccc1)SCc1ccccc1 | > 100 | > 100 | > 100 | > 100 | > 100 | > 100 | > 100 | > 100 | > 100 |  |  |  |  |  |  |  |  |  |  | 
18 | O=C(CCNC12CC3CC(CC(C3)C1)C2)c1ccccc1 | 88.7 |  | 26.5 | 64.2 | 69.6 | 32 | 26.4 | 50.2 | 39.6 |  |  |  |  |  |  |  |  |  |  | 
19 | O=C(O)CCNCCCNCCC(=O)O | > 100 | > 100 | > 100 | > 100 | > 100 | > 100 | > 100 | > 100 | > 100 |  |  |  |  |  |  |  |  |  |  | 
